Drawing on US7595320B2, “Hydrazinocarbonyl-thieno[2,3-C]pyrazoles, process for preparing them, compositions containing them and use thereof” (Aventis Pharma S.A., priority 2005, dated 2009), this text covers IC50 for ten compounds.

Molecules are shown by their SMILES. pIC50: −log10 of the molar value.

Format in all cases: biochemical
In assay [1] the target is T1, Tie2 (Homo sapiens, UniProt Q02763).
T1 construct: amino acids of the intracellular domain 776-1124; made in house; host or cells: baculovirus expression (pFastBacGT vector)
T1 sequence (Q02763 776-1124): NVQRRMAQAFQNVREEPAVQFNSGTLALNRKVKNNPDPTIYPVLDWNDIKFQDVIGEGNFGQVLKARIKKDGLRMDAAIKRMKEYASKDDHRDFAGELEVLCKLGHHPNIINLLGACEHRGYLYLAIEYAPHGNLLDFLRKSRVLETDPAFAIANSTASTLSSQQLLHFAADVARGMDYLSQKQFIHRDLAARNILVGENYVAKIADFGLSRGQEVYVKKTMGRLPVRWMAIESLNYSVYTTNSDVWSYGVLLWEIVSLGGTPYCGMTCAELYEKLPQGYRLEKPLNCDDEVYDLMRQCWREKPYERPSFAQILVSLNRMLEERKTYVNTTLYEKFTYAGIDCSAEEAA
Briefly: Tie2 kinase test, phosphorylation of PLC with GST-Tie2. As to conditions: GST-Tie2 intracellular domain 776-1124. The method, then: The coding sequence of human Tie2 corresponding to the amino acids of the intracellular domain 776-1124 was generated by PCR using the cDNA isolated from a human placenta as a model. This sequence was introduced into a pFastBacGT baculovirus expression vector in the form of a GST fusion protein.
The inhibitory effect of the molecules is determined in a test of phosphorylation of PLC with Tie2 in the presence of GST-Tie2 purified to about 80% homogeneity. The substrate is composed of the SH2-SH3 fragments of PLC expressed in the form of a GST fusion protein.
The kinase activity of Tie2 is measured in a MOPS 20 mM pH 7.2 buffer, containing 10 mM MgCl2, 10 mM MnCl2, 1 mM DTT, 10 mM of glycerophosphate. In a 96-well FlashPlate plate maintained on ice, a reaction mixture is deposited, composed of 70 μL of kinase buffer containing 100 ng of enzyme GST-Tie2 per well. Next, 10 μL of the test molecule diluted in DMSO to a maximum concentration of 10% are added. For a given concentration, each measurement is performed four times. The reaction is initiated by adding 20 μL of solution containing 2 μg of GST-PLC, 2 μm of cold ATP and 1 μCi of ^33P[ATP]. After incubation for one hour at 37° C., the reaction is stopped by adding 1 volume (100 μl) of 200 mM EDTA. After removal of the incubation buffer, the wells are washed three times with 300 μL of PBS. The radioactivity is measured on a MicroBeta1450 Wallac.
The inhibition of the Tie2 activity is calculated and expressed as a percentage of inhibition relative to the control activity determined in the absence of compound.

The target of assay [2] is T2, Aurora2 (Homo sapiens, UniProt O14965).
T2 construct: Aurora2: whole recombinant protein comprising an N-terminal histidine tail; His tag (N); made in house; host or cells: E. coli
T2 sequence (O14965 1-403): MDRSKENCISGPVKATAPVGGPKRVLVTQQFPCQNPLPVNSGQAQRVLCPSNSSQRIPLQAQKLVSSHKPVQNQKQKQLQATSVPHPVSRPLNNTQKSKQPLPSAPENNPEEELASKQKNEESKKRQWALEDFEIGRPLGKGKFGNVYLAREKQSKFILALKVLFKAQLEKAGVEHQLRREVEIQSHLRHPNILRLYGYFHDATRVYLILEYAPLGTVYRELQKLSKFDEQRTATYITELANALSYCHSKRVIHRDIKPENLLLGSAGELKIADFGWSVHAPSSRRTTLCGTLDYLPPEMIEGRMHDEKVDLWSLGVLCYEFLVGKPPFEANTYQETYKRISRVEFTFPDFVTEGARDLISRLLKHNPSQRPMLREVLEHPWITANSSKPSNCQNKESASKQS
Briefly: Aurora2 enzymatic test, NuMA phosphorylation with [33P]ATP, Flashplate. As to conditions: whole recombinant protein, 1 μM ATP. The method, then:
(§1) The inhibitory effect of compounds with respect to the kinases Aurora1 and Aurora2 is determined by means of an enzymatic test using radioactivity detection.
(§2) The kinase activity of Aurora1 and Aurora2 is evaluated via the phosphorylation of the substrate Numa-histidine in the presence of radiolabelled ATP ([^33P]ATP) using 96-well Flashplate plates in which the nickel chelate is bound to the surface of the microplate. The amount of ^33P phosphate incorporated into the NuMA substrate is proportional to the activity of the enzyme Aurora1 or Aurora2.
Aurora2: whole recombinant protein comprising an N-terminal histidine tail, was expressed in E. coli and purified to more than 82%.
(§3) NuMA (nuclear protein that combines with the mitotic apparatus): 424-amino acid fragment, expressed in E. coli, the N-terminal end of which has been labeled with histidine, and used as substrate for the two Aurora enzymes.
(§4) The microplates used are 96-well Flash-Plate plates, nickel chelate (Perkin-Elmer, model SMP107).
(§5) The products to be evaluated are incubated in a reaction volume of 100 μL per well, in the presence of 10 nM of Aurora1 or Aurora2, 500 nM of NuMA substrate in a buffer composed of 50 mM Tris/HCl (pH 7.5), 50 mM NaCl, 5 mM MgCl2 (Aurora-B) or 10 mM MgCl2 (Aurora-A) and 1 mM DTT, at 37° C.
(§6) 80 μL of enzyme/substrate incubation buffer are distributed in each well, followed by 10 μL of product to be evaluated, at variable concentrations. The reaction is initiated by adding 1 μM final of ATP containing 0.2 μCi of [^33P]ATP (10 μL). After incubating for 30 minutes, the reaction is quenched by simple removal of the reaction buffer and each well is washed twice with 300 μl of Tris/HCl buffer. The radioactivity is then measured in each well using a Packard, Top-Count model scintillation machine.
(§7) The control enzymatic activity of Aurora is expressed by the number of counts per minute obtained over 30 minutes after subtracting the background noise (reaction mixture containing no enzyme). The evaluation of the various test products is expressed as a percentage of inhibition of the Aurora activity relative to the control.

Assay [3] deals with T3, Aurora1 (Homo sapiens, UniProt Q96GD4).
T3 construct: His tag (N); made in house
T3 sequence (Q96GD4 whole entry, species assumed): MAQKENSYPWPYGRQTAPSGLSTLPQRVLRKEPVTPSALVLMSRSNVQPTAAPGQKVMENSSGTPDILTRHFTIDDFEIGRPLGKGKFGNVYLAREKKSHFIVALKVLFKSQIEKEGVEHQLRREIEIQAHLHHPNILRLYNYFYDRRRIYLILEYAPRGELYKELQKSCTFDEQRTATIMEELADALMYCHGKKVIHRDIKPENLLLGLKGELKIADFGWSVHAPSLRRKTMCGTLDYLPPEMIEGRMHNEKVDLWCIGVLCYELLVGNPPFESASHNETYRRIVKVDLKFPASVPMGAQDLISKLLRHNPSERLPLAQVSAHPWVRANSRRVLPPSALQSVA
T3 sequence (Q9NQS7 835-903 partner limits assumed, species assumed): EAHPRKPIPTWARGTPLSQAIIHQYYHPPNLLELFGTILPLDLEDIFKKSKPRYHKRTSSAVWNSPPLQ
As to the kind of experiment: Aurora1 enzymatic test, NuMA phosphorylation with [33P]ATP, Flashplate. As to conditions: Aurora-B/INCENP-C3 recombinant complex, 1 μM ATP. The procedure: as §1, §2
Aurora1: Aurora-B/INCENP-C3 recombinant complex, purified to about 50%, the N-terminal end of Aurora-B of which has been labeled with histidine.
as §3, §4, §5, §6, §7

The target in assay [4] is T4, CDK2/cycline E (Homo sapiens, UniProt P24941).
T4 construct: made in house; host or cells: Sf21 insect cells (baculovirus coinfection)
Briefly: CDK2/cyclineE Flashplate test in 96-well format. As to conditions: CDK2/cycline E complex, 1 μM ATP. The method, then: Two recombinant baculoviruses bearing the human sequences coding, respectively, for CDK2 and cyclineE (the latter bearing a C-terminal hexahistidine tag) are used to coinfect Sf21 insect cells. Two to three days after the start of coinfection, the cells are harvested by centrifugation and then stored at −40° C. until the time of use.
A format in streptavidin-coated 96-well plates is used to test the activity of the compounds on the kinase activity of CDK2/cycline E.
To perform this test, the biotinylated peptide substrate, a fragment of the protein pRb (biotinyl-[…]-OH), is dissolved at a concentration of 1 mM in kinase buffer (HEPES/NaOH 50 mM, NaCl 1 mM, MgCl2 5 mM, pH 7.5) in order to constitute a stock solution stored at −20° C. in the form of 110 μL aliquots. On the day of the experiment, an aliquot of this solution is thawed and diluted in kinase buffer containing 1 mM of dithiothreitol, added to the buffer extemporaneously, in order to obtain a concentration of 14.3 μM. 70 μL of this solution are added to each well of the Flashplate in order to obtain a final substrate concentration of 10 μM during the enzymatic reaction performed in a final volume of the reaction medium of 100 μL (cf. below).
Intermediate dilutions of inhibitors (products of the invention) at various concentrations are prepared in DMSO from stock solutions at 10 mM in separate tubes. Dilutions at 1000 μM, 333.3 μM, 111.1 μM, 37.03 μM, 12.35 μM, 4.11 μM and 1.37 μM are thus prepared. One μL of each of these solutions (or 1 μL of DMSO for the controls) is transferred into the wells of the test plate.
19 μl of a solution of a mixture of adenosine triphosphate (ATP) and of ATPγ^33P in kinase buffer at a total concentration of 5.26 μM of ATP and 52.6 μCi/ml of ^33P are then added to each well. The enzymatic reaction is initiated by adding 10 μL per well of a 200 nM solution of CDK2/cycline E in kinase buffer containing 1 mM of dithiothreitol (or 10 μL of kinase buffer containing 1 mM of dithiothreitol for the reaction blanks).
After addition of each of the reagents, the final volume of each well is 100 μL, the final concentration of substrate is 10 μM, the final inhibitor concentrations are 10 μM, 3.33 μM, 1.11 μM, 0.37 μM, 0.123 μM, 0.041 μM and 0.014 μM (according to the concentration of the intermediate dilution), the final ATP concentration is 1 μM, the final amount of ^33P is 1 μCi/well, and the final concentration of CDK2/cycline E complex is 20 nM.
After addition of all of the reagents, the test plate is incubated at 30° C. with orbital shaking at 650 rpm.
When the incubation is complete, the plate is washed three times with 300 μL per well of PBS (phosphate-buffered saline, pH=7.4, without calcium or magnesium, reference 10010-015, Gibco BRL). The incorporation of ^33P to the peptide is quantified by scintillation counting with a Packard Topcount.NXT machine.

For the compound `CN1CCN(c2ccc(C(=O)Nc3n[nH]c4sc(C(=O)NN(CC5CCC5)c5ccc(Cl)cc5)cc34)cc2)CC1` [Example 36, N-{5-[N′-(4-chlorophenyl)-N′-cyclobutylmethylhydrazinocarbonyl]-1H-thieno[2,3-c]pyrazol-3-yl}-4-(4-methylpiperazin-1-yl)-benzamide], the pIC50 (usually the IC50 on a negative log10 scale, so that one unit is a factor of ten) in assay [1] is 8.22; in assay [2] it was 8.30; in assay [3], 8.05; in assay [4], 5.72.
Taken in the same sequence, the figures for `COC[C@@H]1CCCN1NC(=O)c1cc2c(NC(=O)c3ccc(N4CCN(C)CC4)cc3)n[nH]c2s1` [Example 29, N-(2-methoxymethylpyrrolidin-1-yl)-3-[4-(4-methylpiperazin-1-yl)benzoylamino]-1H-thieno[2,3-c]pyrazole-5-carboxamide] were 6.79, 7.96, 7.55 and 6.23.
The corresponding values for `CN1CCN(c2ccc(C(=O)Nc3n[nH]c4sc(C(=O)N/N=C\c5ccccc5)cc34)cc2)CC1` [Example 45, N-[5-(benzylidenehydrazinocarbonyl)-1H-thieno-[2,3-c]pyrazol-3-yl]-4-(4-methylpiperazin-1-yl)benzamide] are 7.54, 7.68, 7.48 and 6.84.
The corresponding values for `CN1CCN(c2ccc(C(=O)Nc3n[nH]c4sc(C(=O)NN(C)c5ccccc5)cc34)cc2)CC1` [Example 35, N-[5-(N′-methyl-N′-phenylhydrazinocarbonyl)-1H-thieno[2,3-c]pyrazol-3-yl]-4-(4-methylpiperazin-1-yl)benzamide] are 7.54, 8.40, 8.40 and 6.92.
On to `CN(NC(=O)c1cc2c(NC(=O)c3ccc(CN4CCCC4)cc3)n[nH]c2s1)c1ccccc1` [Example 18a, N-[5-(N′-methyl-N′-phenylhydrazinocarbonyl)-1H-thieno[2,3-c]pyrazol-3-yl]-4-pyrrolidin-1-ylmethylbenzamide], for which the negative logarithm of the IC50 (pIC50) is 6.20 in assay [1], 7.85 in assay [2], 6.91 in assay [3] and 6.74 in assay [4].
Taken in the same sequence, the figures for `CN(C)CCN(C)Cc1ccc(C(=O)Nc2n[nH]c3sc(C(=O)NN(C)c4ccccc4)cc23)cc1` [Example 20a, 4-{[(2-dimethylaminoethyl)methylamino]methyl}-N-[5-(N′-methyl-N′-phenylhydrazinocarbonyl)-1H-thieno[2,3-c]pyrazol-3-yl]benzamide] were 6.07, 7.15, 6.72 and 6.46.
Taken in the same sequence, the figures for `CC1CN(Cc2ccc(C(=O)Nc3n[nH]c4sc(C(=O)NN(C)c5ccccc5)cc34)cc2)CCN1` (stereo not shown) [Example 14a, N-[5-(N′-methyl-N′-phenylhydrazinocarbonyl)-1H-thieno[2,3-c]pyrazol-3-yl]-4-(3-methylpiperazin-1-ylmethyl)benzamide] were 6.13, 7.72, 6.80 and 6.78.
Taken in the same sequence, the figures for `CN(NC(=O)c1cc2c(NC(=O)c3cccc(CN4CCOCC4)c3)n[nH]c2s1)c1ccc(Cl)cc1` [Example 22b, N-{5-[N′-(4-chlorophenyl)-N′-methylhydrazinocarbonyl]-1H-thieno[2,3-c]pyrazol-3-yl}-3-morpholin-4-ylmethylbenzamide] were 5.50, 6.12, 6.02 and 6.15.
For the compound `COc1ccc(C(=O)Nc2n[nH]c3sc(C(=O)NN(C)c4ccccc4)cc23)cc1` [Example 2], the negative-log IC50 (pIC50) is 7.04 in assay [1], 8.05 in assay [2], 8.05 in assay [3] and 7.01 in assay [4].
Regarding `CN1CCN(Cc2ccc(C(=O)Nc3n[nH]c4sc(C(=O)NN(C)c5ccccc5)cc34)cc2)CC1` [Example 10, N-[5-(N′-methyl-N′-phenylhydrazinocarbonyl)-1H-thieno[2,3-c]pyrazol-3-yl]-4-(4-methylpiperazin-1-ylmethyl)benzamide], the pIC50 in assay [1] is 6.44; in assay [2], 7.34; in assay [3], 6.99; in assay [4] it was 7.04.
